Assay results from patent US20230339970A1, “CASEIN KINASE 1 DELTA MODULATORS” (priority 2020, published 2023).

Tests used:
[1] = target: T1, human recombinant GST cleaved CSNK1D (Homo sapiens, UniProt P48730); assay: Purified Enzyme Assay (ADP-Glo CSNK1D Kinase Assay); assay type: biochemical; conditions: 2 nM CSNK1D; peptide substrate 150 μM; ATP 20 μM; 45 minutes at room temperature
T1 construct: GST (cleaved yes); purchased University of Dundee clone DU 19064
How it was run: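 GST-cleaved human recombinant CSNK1D phosphorylates peptide PLSRTL-pS-VASLPGL with ATP; compounds added in dose-response, 45 min at room temperature. ADP formed measured by ADP-Glo luminescence and converted to percent activity.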

human CSNK1D = target: T2, human CSNK1D (Homo sapiens, UniProt P48730); assay: Whole Cell nBRET CSNK1D Binding Assay; conditions: living CHO cells stably expressing human CSNK1D tagged with nanoluciferase; NanoBret tracer 130 nM; 2 hours at 37 C
T2 construct: expressed in transfected cells
T2 sequence (P48730 whole entry): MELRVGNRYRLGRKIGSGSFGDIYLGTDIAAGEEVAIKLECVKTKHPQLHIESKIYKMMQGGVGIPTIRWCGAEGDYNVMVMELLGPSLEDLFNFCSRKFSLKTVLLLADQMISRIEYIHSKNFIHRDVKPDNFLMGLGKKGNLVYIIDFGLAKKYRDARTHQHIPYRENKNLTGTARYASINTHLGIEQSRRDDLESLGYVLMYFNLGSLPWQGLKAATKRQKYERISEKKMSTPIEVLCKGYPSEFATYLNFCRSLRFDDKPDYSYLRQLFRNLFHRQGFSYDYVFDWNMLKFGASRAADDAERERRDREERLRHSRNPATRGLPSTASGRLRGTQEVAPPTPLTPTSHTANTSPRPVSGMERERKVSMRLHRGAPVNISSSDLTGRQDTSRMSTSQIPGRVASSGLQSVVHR

T1 sequence (P48730 whole entry): as above

Compound	IC50 [1] [µM]	IC50 (human CSNK1D) [µM]
Fc1ccc(-c2nn3c(c2-c2c(F)cnc4[nH]ncc24)OC[C@H]2C[C@H]2C3)nc1 (stereo in doubt) [Example 481, (5a*S,6a*R)-3-(5-Fluoro-1H-pyrazolo[3,4-b]pyridin-4-yl)-2-(5-fluoropyridin-2-yl)-5a,6,6a,7-tetrahydro-5H-cyclopropa[e]pyrazolo[5,1-b][1,3]oxazepine]	0.006	0.065
CC1(C)COc2c(-c3ccn4nccc4c3)c(-c3ccc(F)cn3)nn2C1 [Example 449, 2-(5-Fluoropyridin-2-yl)-6,6-dimethyl-3-(pyrazolo[1,5-a]pyridin-5-yl)-6,7-dihydro-5H-pyrazolo[5,1-b][1,3]oxazine]	0.008	0.07
C[C@@H]1C[C@@H](C)n2nc(-c3ccc(F)cn3)c(-c3ccnc4[nH]ncc34)c2O1 (single isomer, unassigned) [Example 204, (5*R,7*R)-2-(S-Fluoropyridin-2-yl)-5,7-dimethyl-3-(1H-pyrazolo[3,4-b]pyridin-4-yl)-6,7-dihydro-5H-pyrazolo[5,1-b][1,3]oxazine]	0.013	0.305
Cc1n[nH]c2ncc(F)c(-c3c(-c4ccc(F)cn4)nn4c3CC[C@H]3[C@@H]4C3(F)F)c12 (single isomer, unassigned) [Example 359, (5a*S,6a*R)-6,6-Difluoro-3-(5-fluoro-3-methyl-1H-pyrazolo[3,4-b]pyridin-4-yl)-2-(5-fluoropyridin-2-yl)-5,5a,6,6a-tetrahydro-4H-cyclopropa[e]pyrazolo[1,5-a]pyridine]	1.67	> 10
Cc1cc(-c2c(-c3ccc(F)cc3)nn3c2[C@H]2C[C@H]2C3)c2cn[nH]c2n1 (single isomer, unassigned) [Example 277, (3b*S,4a*R)-2-(4-Fluorophenyl)-3-(6-methyl-1H-pyrazolo[3,4-b]pyridin-4-yl)-3b,4,4a,5-tetrahydrocyclopropa[3,4]pyrrolo[1,2-b]pyrazole]	0.006	0.043
COc1cnccc1-c1c(-c2ccc(F)cn2)nn2c1COC(C)(C)C2 [Example 130, 2-(5-Fluoropyridin-2-yl)-3-(3-methoxypyridin-4-yl)-6,6-dimethyl-6,7-dihydro-4H-pyrazolo[5,1-c][1,4]oxazine]	0.031	0.624
CCn1ncc2cc(-c3c(-c4ccc(F)cn4)nn4c3COC(C)(C)C4)cnc21 [Example 141, 3-(1-Ethyl-1H-pyrazolo[3,4-b]pyridin-5-yl)-2-(5-fluoropyridin-2-yl)-6,6-dimethyl-6,7-dihydro-4H-pyrazolo[5,1-c][1,4]oxazine]	0.344	5.69
Cc1nc2[nH]ncc2c(-c2c(-c3ccc(F)cn3)nn3c2CC[C@@]2(C3)CC2(F)F)c1F (single isomer, unassigned) [Example 331, (*S)-2,2-Difluoro-3′-(5-fluoro-6-methyl-1H-pyrazolo[3,4-b]pyridin-4-yl)-2′-(5-fluoropyridin-2-yl)-4′,5′-dihydro-7′H-spiro[cyclopropane-1,6′-pyrazolo[1,5-a]pyridine]]	0.018	0.089
CC1(CC2COC2)CCc2c(-c3ccnc4[nH]ncc34)c(-c3ccc(F)cn3)nn2C1 (single isomer, unassigned) [Example 320, (*R)-4-(2-(5-Fluoropyridin-2-yl)-6-methyl-6-(oxetan-3-ylmethyl)-4,5,6,7-tetrahydropyrazolo[1,5-a]pyridin-3-yl)-1H-pyrazolo[3,4-b]pyridine]	0.014	0.105
Fc1ccc(-c2nn3c(c2-c2ccnc4[nH]ncc24)OCC2(CC2)C3)cc1 [Example 457, 2′-(4-Fluorophenyl)-3′-(1H-pyrazolo[3,4-b]pyridin-4-yl)-5′H,7′H-spiro[cyclopropane-1,6′-pyrazolo[5,1-b][1,3]oxazine]]	0.001	0.002
CC1(C)Cn2nc(-c3ccc(F)cn3)c(-c3ccnc(C(F)F)c3)c2CO1 [Example 129, 3-(2-(Difluoromethyl)pyridin-4-yl)-2-(5-fluoropyridin-2-yl)-6,6-dimethyl-6,7-dihydro-4H-pyrazolo[5,1-c][1,4]oxazine]	0.036	0.44
COC[C@]1(F)CCc2c(-c3cc(C)nc4[nH]ncc34)c(-c3ccc(F)cn3)nn2C1 (single isomer, unassigned) [Example 304, (*S)-4-[6-Fluoro-2-(5-fluoro-2-pyridyl)-6-(methoxymethyl)-5,7-dihydro-4H-pyrazolo[1,5-a]pyridin-3-yl]-6-methyl-1H-pyrazolo[3,4-b]pyridine]	0.004	0.034
CC1(C)COCc2c(-c3ccnc4[nH]ncc34)c(-c3ccc(F)cn3)nn21 [Example 122, 2-(5-Fluoro-2-pyridyl)-7,7-dimethyl-3-(1H-pyrazolo[3,4-b]pyridin-4-yl)-4,6-dihydropyrazolo[5,1-c][1,4]oxazine]	0.12	3.41
Cc1n[nH]c2nccc(-c3c(-c4ccc(F)cc4)nn4c3OCC3(C4)CC3(F)F)c12 (single isomer, unassigned) [Example 473, (*R)-2,2-Difluoro-2′-(4-fluorophenyl)-3′-(3-methyl-1H-pyrazolo[3,4-b]pyridin-4-yl)-5′H,7′H-spiro[cyclopropane-1,6′-pyrazolo[5,1-b][1,3]oxazine]]	0.002	0.006
Fc1ccc(-c2nn3c(c2-c2ccnc4[nH]ncc24)COC2(C3)CC2(F)F)nc1 (single isomer, unassigned) [Example 433, (*R)-1′. 1′-Difluoro-2-(5-fluoro-2-pyridyl)-3-(1H-pyrazolo[3,4-b]pyridin-4-yl)spiro[4,7-dihydropyrazolo[5,1-c][1,4]oxazine-6,2′-cyclopropane]]	0.004	0.079
CC1(C)Cn2nc(-c3ccc(F)cn3)c(-c3cc(CCC(F)(F)F)nc4[nH]ncc34)c2CO1 [Example 391, 2-(5-Fluoro-2-pyridyl)-6,6-dimethyl-3-[6-(3,3,3-trifluoropropyl)-1H-pyrazolo[3,4-b]pyridin-4-yl]-4,7-dihydropyrazolo[5,1-c][1,4]oxazine]	0.258	5.38
Fc1ccc(-c2nn3c(c2-c2ccnc4[nH]ncc24)C[C@H]2[C@@H](C3)C2(F)F)cc1 (stereo in doubt) [Example 363, (4a*S,5a*S)-5,5-Difluoro-2-(4-fluorophenyl)-3-(1H-pyrazolo[3,4-b]pyridin-4-yl)-4a,5,5a,6-tetrahydro-4H-cyclopropa[d]pyrazolo[1,5-a]pyridine]	0.06	1.41
[2H]C([2H])([2H])[C@]1(C(F)(F)F)Cn2nc(-c3ccc(F)cn3)c(-c3ccnc4[nH]nc(C)c34)c2CO1 (single isomer, unassigned) [Example 425, (*R)-2-(5-Fluoropyridin-2-yl)-6-(methyl-d3)-3-(3-methyl-1H-pyrazolo[3,4-b]pyridin-4-yl)-6-(trifluoromethyl)-6,7-dihydro-4H-pyrazolo[5,1-c][1,4]oxazine]	0.235	2.26
Cc1cc(-c2c(-c3ccc(F)cn3)nn3c2OCC2(CC2)C3)c2c(Cl)n[nH]c2n1 [Example 464, 3′-(3-Chloro-6-methyl-1H-pyrazolo[3,4-b]pyridin-4-yl)-2′-(5-fluoropyridin-2-yl)-5′H,7′H-spiro[cyclopropane-1,6′-pyrazolo[5,1-b][1,3]oxazine]]	0.005	0.011
